Measurements taken from PubChem BioAssay AID192 (DTP/NCI, 2004).
Toxic doses and inconclusive results are not listed.

Tested on: BDF1 mice, B16 melanoma ip, median survival T/C
Test: NCI In Vivo Anticancer Drug Screen. Data for tumor model B16 Melanoma (intraperitoneal) in B6D2F1 (BDF1) mice
Settings: endpoint: median survival time, higher = longer survival
Procedure: The antitumor activity of compounds was measured in mice bearing transplantable tumors. Survival or tumor size were measured and the results are expressed as the measurement made in the treated group (T) divided by the measurement made in the vehicle treated control group (C). The tumor model used in this assay is B16 Melanoma (intraperitoneal) in B6D2F1 (BDF1) mice

[1] = dose: 25.0 mg/kg/injection, schedule: Q01DX009 (ip), vehicle: saline with Tween-80
[2] = dose: 25.0 mg/kg/injection, schedule: Q04DX003 (ip), vehicle: saline with Tween-80
[3] = dose: 50.0 mg/kg/injection, schedule: Q04DX003 (ip), vehicle: saline with Tween-80

SMILES: CCCCC(=O)OCC1OC(n2cnc3c(=S)nc[nH]c32)C(OC(=O)CCCC)C1OC(=O)CCCC (stereo not drawn)
- T/C [1]: 119 % of control

SMILES: CC(=O)ON1C(=O)C=CC1=O
- T/C (dose: 3.13 mg/kg/injection, schedule: Q01DX009 (ip), vehicle: water): 92 % of control
- T/C (dose: 6.25 mg/kg/injection, schedule: Q01DX009 (ip), vehicle: water): 103 % of control
- T/C (dose: 12.5 mg/kg/injection, schedule: Q01DX009 (ip), vehicle: water): 106 % of control
- T/C (dose: 25.0 mg/kg/injection, schedule: Q01DX009 (ip), vehicle: water): 87 % of control

SMILES: COc1ccc(NC(=O)O/N=C2\CN(S(=O)(=O)c3ccc(C)cc3)CCc3ccccc32)cc1
- T/C (dose: 100.0 mg/kg/injection, schedule: Q04DX003 (ip), vehicle: Klucel (hydroxypropylcellulose) (HPC)): 102 % of control
- T/C (dose: 200.0 mg/kg/injection, schedule: Q04DX003 (ip), vehicle: Klucel (hydroxypropylcellulose) (HPC)): 97 % of control
- T/C (dose: 400.0 mg/kg/injection, schedule: Q04DX003 (ip), vehicle: Klucel (hydroxypropylcellulose) (HPC)): 88 % of control

SMILES: CCCCCCC(=O)O[C@H]1CC[C@H]2[C@@H]3CCC4=CC(=O)CC[C@]4(C)[C@H]3CC[C@]12C
- T/C (dose: 10.0 mg/kg/injection, schedule: Q01DX009 (ip), vehicle: Klucel (hydroxypropylcellulose) (HPC)): 96 % of control
- T/C (dose: 20.0 mg/kg/injection, schedule: Q01DX009 (ip), vehicle: Klucel (hydroxypropylcellulose) (HPC)): 110 % of control
- T/C (dose: 40.0 mg/kg/injection, schedule: Q01DX009 (ip), vehicle: Klucel (hydroxypropylcellulose) (HPC)): 89 % of control
- T/C (dose: 80.0 mg/kg/injection, schedule: Q01DX009 (ip), vehicle: Klucel (hydroxypropylcellulose) (HPC)): 103 % of control

SMILES: CC(C)=CN1CCCCC1
- T/C (dose: 12.5 mg/kg/injection, schedule: Q01DX009 (ip), vehicle: saline with Tween-80): 101 % of control
- T/C [1]: 105 % of control
- T/C [2]: 104 % of control
- T/C (dose: 50.0 mg/kg/injection, schedule: Q01DX009 (ip), vehicle: saline with Tween-80): 108 % of control
- T/C [3]: 109 % of control
- T/C (dose: 100.0 mg/kg/injection, schedule: Q04DX003 (ip), vehicle: saline with Tween-80): 90 % of control
- T/C (dose: 200.0 mg/kg/injection, schedule: Q01DX009 (ip), vehicle: saline with Tween-80): 86 % of control

SMILES: CCCCCCCCCCCCCCCC(=O)N(C/C=C/CN(CCCN(C)C)C(=O)CCCCCCCCCCCCCCC)CCCN(C)C
- T/C (dose: 0.78 mg/kg/injection, schedule: Q01DX009 (ip), vehicle: saline with Tween-80): 86 % of control
- T/C (dose: 1.56 mg/kg/injection, schedule: Q01DX009 (ip), vehicle: saline): 90 % of control
- T/C (dose: 1.6 mg/kg/injection, schedule: Q01DX009 (ip), vehicle: saline with Tween-80): 104 % of control
- T/C (dose: 3.13 mg/kg/injection, schedule: Q01DX009 (ip), vehicle: saline with Tween-80): 97 % of control
- T/C (dose: 3.2 mg/kg/injection, schedule: Q01DX009 (ip), vehicle: saline with Tween-80): 95 % of control
- T/C (dose: 6.25 mg/kg/injection, schedule: Q01DX009 (ip), vehicle: saline with Tween-80): 95 % of control
- T/C (dose: 6.3 mg/kg/injection, schedule: Q01DX009 (ip), vehicle: saline with Tween-80): 91 % of control
- T/C (dose: 12.5 mg/kg/injection, schedule: Q04DX003 (ip), vehicle: saline with Tween-80): 177 % of control
- T/C [1]: 158 % of control
- T/C [2]: 163 % of control
- T/C [3]: 155 % of control

SMILES: C[C@]12CC[C@H](OC(=O)COc3ccc(N(CCCl)CCCl)cc3)C[C@@H]1CC[C@@H]1[C@@H]2CC[C@]2(C)NC(=O)CC[C@@H]12
- T/C (dose: 4.0 mg/kg/injection, schedule: Q01DX009 (ip), vehicle: saline with Tween-80): 111 % of control
- T/C (dose: 32.0 mg/kg/injection, schedule: Q01DX009 (ip), vehicle: saline with Tween-80): 109 % of control

SMILES: CCCCC(CC)C(O)C1CCCCC1O (stereo not drawn)
- T/C (dose: 100.0 mg/kg/injection, schedule: Q01DX009 (ip), vehicle: Klucel (hydroxypropylcellulose) (HPC)): 100 % of control
- T/C (dose: 200.0 mg/kg/injection, schedule: Q01DX009 (ip), vehicle: Klucel (hydroxypropylcellulose) (HPC)): 89 % of control

SMILES: c1ccc([I+]c2ccccc2)cc1
- T/C (dose: 1.0 mg/kg/injection, schedule: Q01DX009 (ip), vehicle: saline + Tween-80 + alcohol): 103 % of control
- T/C (dose: 2.0 mg/kg/injection, schedule: Q01DX009 (ip), vehicle: saline + Tween-80 + alcohol): 97 % of control
- T/C (dose: 4.0 mg/kg/injection, schedule: Q01DX009 (ip), vehicle: saline + Tween-80 + alcohol): 108 % of control
- T/C (dose: 6.0 mg/kg/injection, schedule: Q01DX009 (sc), vehicle: olive oil, sesame oil, peanut oil): 100 % of control
